Like-named read-outs stand apart in the source and are kept apart here.
Molecular target: T1, ACAT 2 (Mus musculus, UniProt O88908)
T1 construct: The source of ACAT 2 enzyme used was a membrane fraction derived from mouse liver microsome; from tissue; host or cells: mouse liver (microsome fraction)
T1 sequence (O88908 1-525): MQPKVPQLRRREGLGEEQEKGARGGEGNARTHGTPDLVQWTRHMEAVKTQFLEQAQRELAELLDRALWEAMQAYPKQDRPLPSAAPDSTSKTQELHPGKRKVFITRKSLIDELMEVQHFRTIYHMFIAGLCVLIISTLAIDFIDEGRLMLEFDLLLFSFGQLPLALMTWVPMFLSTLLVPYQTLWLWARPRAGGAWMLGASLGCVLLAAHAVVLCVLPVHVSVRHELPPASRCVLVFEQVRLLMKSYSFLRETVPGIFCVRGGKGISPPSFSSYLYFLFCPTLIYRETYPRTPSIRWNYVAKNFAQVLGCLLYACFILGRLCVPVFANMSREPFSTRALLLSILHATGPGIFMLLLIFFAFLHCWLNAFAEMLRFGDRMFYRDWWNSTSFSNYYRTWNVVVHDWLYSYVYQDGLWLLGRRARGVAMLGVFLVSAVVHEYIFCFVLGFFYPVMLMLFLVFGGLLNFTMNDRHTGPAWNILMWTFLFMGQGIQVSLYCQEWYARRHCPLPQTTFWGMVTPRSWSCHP
Assay: ACAT-inhibiting activity, mouse liver microsome membrane fraction, [14C]oleoyl-CoA
Type: biochemical
Description: The source of ACAT 2 enzyme used was a membrane fraction derived from mouse liver microsome. Mouse liver was homogenized in buffer solution A (50 mM Tris-HCl (pH 7.8), 1 mM ethylenediamine tetraacetate, and 1 mM phenylmethanesulfonyl fluoride) using a homogenizer of the Potter type (Tokyo-RIKO). The homogenate was centrifuged at 12000×g, and the supernatant was ultracentrifuged at 100000×g. The sediment was taken as a microsome fraction, and this fraction was adjusted to have a protein concentration of 5 mg/ml using buffer solution A.
The chloroform layer was evaporated to dryness and was used to spot a thin layer chromatography plate (silica gel plate, Merck, 0.5 mm thickness). Elution for separation was carried out using a solvent of hexane/diethyl ether/acetic acid (70:30:1, v/v).

[1] = mouse liver microsome, 5 minutes at 37° C.

Structure (SMILES) | IC50 [1] [nM] | Specific activity relative to pyripyropene A (numeric) (relative to pyripyropene A) | Specific activity: (inhibitory activity of test compound)/(inhibitory activity of pyripyropene A) (relative to pyripyropene A) | IC50 [nM]
CSc1ccc(C(=O)O[C@H]2CC3C(C)(COC(C)=O)[C@@H](OC(C)=O)CC[C@]3(C)C3[C@@H](O)c4c(cc(-c5cccnc5)oc4=O)O[C@@]32C)cc1 (some centres unmarked) [PRD 018, 7-p-methylthiobenzoyl-7-deacetylpyripyropene A] | 10 to 100 |  | + (5 > specific activity > 1) | 
CC(=O)OCC1(C)C2C[C@H](OC(=O)C3CCCCC3)[C@@]3(C)Oc4cc(-c5cccnc5)oc(=O)c4[C@H](O)C3[C@@]2(C)CC[C@@H]1OC(C)=O (some centres unmarked) [PRD 021, 7-cyclohexanecarboxyl-7-deacetylpyripyropene A] |  |  | ++++ (100 > specific activity > 50) | < 10
CC12COC(c3ccccc3)O[C@H]1CC[C@@]1(C)C2C[C@H](OC(=O)c2cccc(C#N)c2)[C@@]2(C)Oc3cc(-c4cccnc4)oc(=O)c3[C@H](O)C12 (some centres unmarked) [PRD 040, 1,11-O-benzylidene-7-O-m-cyanobenzoyl-1,7,11-trideacetylpyripyropene A] | 10 to 100 |  | +++ (50 > specific activity > 10) | 
CC(=O)OCC1(C)C2C[C@H](OC(=O)c3ccc4c(c3)OC(F)(F)O4)[C@@]3(C)Oc4cc(-c5cccnc5)oc(=O)c4[C@H](O)C3[C@@]2(C)CC[C@@H]1OC(C)=O (some centres unmarked) [PRD 036, 7-2,2-difluorobenzo[d][1,3]dioxol-5-carboxyl-7-deacetylpyripyropene A] | 10 to 100 |  | ++ (10 > specific activity > 5) | 
CC(=O)OCC1(C)C2C[C@H](OC(=O)c3cc4ccccc4s3)[C@@]3(C)Oc4cc(-c5cccnc5)oc(=O)c4[C@H](O)C3[C@@]2(C)CC[C@@H]1OC(C)=O (some centres unmarked) [PRD 035, 7-benzo[b]thiophene-2-carboxyl-7-deacetylpyripyropene A] | 100 to 1000 |  | + (5 > specific activity > 1) | 
CC(=O)OCC1(C)C2C=C[C@@]3(C)Oc4cc(-c5cccnc5)oc(=O)c4[C@H](O)C3[C@@]2(C)CC[C@@H]1OC(C)=O (some centres unmarked) [PRD 061, 7,8-olefinpyripyropene A] |  |  | + (5 > specific activity > 1) | 100 to 1000
CC(=O)OCC1(C)C2C[C@@H](N=[N+]=[N-])[C@@]3(C)Oc4cc(-c5cccnc5)oc(=O)c4[C@H](O)C3[C@@]2(C)CC[C@@H]1OC(C)=O (stereo partly drawn) [PRD 062, 7-(R)-azide-7-(S)-deacetylpyripyropene A] | 100 to 1000 |  | + (5 > specific activity > 1) | 
CC(=O)OCC1(C)C2C[C@H](OC(=O)Cn3cnnn3)[C@@]3(C)Oc4cc(-c5cccnc5)oc(=O)c4[C@H](O)C3[C@@]2(C)CC[C@@H]1OC(C)=O (some centres unmarked) [PRD 092, 7-O-2-(1H-tetrazol-1-yl)acetyl-7-deacetylpyripyropene A] |  |  | + (5 > specific activity > 1) | 100 to 1000
CC12COC(c3ccccc3)O[C@H]1CC[C@@]1(C)C2C[C@H](OC(=O)c2cccc(Cl)c2)[C@@]2(C)Oc3cc(-c4cccnc4)oc(=O)c3[C@H](O)C12 (some centres unmarked) [PRD 050, 1,11-O-benzylidene-7-O-m-chlorobenzoyl-1,7,11-trideacetylpyripyropene A] | 10 to 100 |  | +++ (50 > specific activity > 10) | 
CC12COC(c3ccccc3)O[C@H]1CC[C@@]1(C)C2C[C@H](OC(=O)c2cccc(F)c2)[C@@]2(C)Oc3cc(-c4cccnc4)oc(=O)c3[C@H](O)C12 (some centres unmarked) [PRD 047, 1,11-O-benzylidene-7-O-m-fluorobenzoyl-1,7,11-trideacetylpyripyropene A] | 10 to 100 |  | +++ (50 > specific activity > 10) | 
CC(=O)OCC1(C)C2C[C@@H](Cl)[C@@]3(C)Oc4cc(-c5cccnc5)oc(=O)c4[C@H](O)C3[C@@]2(C)CC[C@@H]1OC(C)=O (stereo partly drawn) [PRD 065, 7-(R)-chloro-7-(S)-deacetylpyripyropene A] |  |  | + (5 > specific activity > 1) | 100 to 1000
COc1cccc(C(=O)O[C@H]2CC3C4(C)COC(c5ccccc5)O[C@H]4CC[C@]3(C)C3[C@@H](O)c4c(cc(-c5cccnc5)oc4=O)O[C@@]32C)c1 (some centres unmarked) [PRD 043, 1,11-O-benzylidene-7-O-m-methoxybenzoyl-1,7,11-trideacetylpyripyropene A] | 10 to 100 |  | +++ (50 > specific activity > 10) | 
CC(=O)OCC1(C)C(OC(C)=O)CC[C@@]2(C)C1C[C@H](OC(=O)c1ccc(C(N)=O)cc1)[C@@]1(C)Oc3cc(-c4cccnc4)oc(=O)c3[C@H](O)C21 (some centres unmarked) [PRD 111] | 100 to 1000 |  | + (5 > specific activity > 1) | 

Now from value to compound, other results behind:

IC50 [1] [nM] | Specific activity relative to pyripyropene A (numeric) (relative to pyripyropene A) | Specific activity: (inhibitory activity of test compound)/(inhibitory activity of pyripyropene A) (relative to pyripyropene A) | Structure (SMILES) | IC50 [nM]
< 10 | ≥ 100 | +++++ (specific activity > 100) | CC(=O)OCC1(C)C2C[C@H](OC(=O)c3cccc(F)c3)[C@@]3(C)Oc4cc(-c5cccnc5)oc(=O)c4[C@H](O)C3[C@@]2(C)CC[C@@H]1OC(C)=O (some centres unmarked) [PRD 024, 7-m-fluorobenzoyl-7-deacetylpyripyropene A] | 
< 10 |  | +++ (50 > specific activity > 10) | CC(=O)OCC1(C)C2C[C@H](OC(=O)c3ccc(Br)cc3F)[C@@]3(C)Oc4cc(-c5cccnc5)oc(=O)c4[C@H](O)C3[C@@]2(C)CC[C@@H]1OC(C)=O (some centres unmarked) [PRD 109, 7-O-p-bromo-o-fluorobenzoyl-7-deacetylpyripyropene A] | 
10 to 100 |  | + (5 > specific activity > 1) | CC(=O)OCC1(C)C2C[C@H](OC(=O)C3CCC(C)CC3)[C@@]3(C)Oc4cc(-c5cccnc5)oc(=O)c4[C@H](O)C3[C@@]2(C)CC[C@@H]1OC(C)=O (stereo partly drawn) [PRD 085, 7-O-4-trans-methylcyclohexanecarboxyl-7-deacetylpyripyropene A] | 
100 to 1000 |  | + (5 > specific activity > 1) | CC(=O)OCC1(C)C2C[C@H](OC(=O)CCCCO)[C@@]3(C)Oc4cc(-c5cccnc5)oc(=O)c4[C@H](O)C3[C@@]2(C)CC[C@@H]1OC(C)=O (some centres unmarked) [PRD 093, 7-O-5-hydroxypentanoyl-7-deacetylpyripyropene A] | 
100 to 1000 |  | + (5 > specific activity > 1) | CC(=O)OCC1(C)C2C[C@H](OC(=O)CCN3CCCCC3)[C@@]3(C)Oc4cc(-c5cccnc5)oc(=O)c4[C@H](O)C3[C@@]2(C)CC[C@@H]1OC(C)=O (some centres unmarked) [PRD 095, 7-O-3-(pyperidin-1-yl)propionyl-7-deacetylpyripyropene A] | 
10 to 100 |  | +++ (50 > specific activity > 10) | CC(=O)OCC1(C)C2C[C@H](OC(=O)c3cccc(I)c3)[C@@]3(C)Oc4cc(-c5cccnc5)oc(=O)c4[C@H](O)C3[C@@]2(C)CC[C@@H]1OC(C)=O (some centres unmarked) [PRD 005, 7-m-iodobenzoyl-7-deacetylpyripyropene A] | 
 |  | +++ (50 > specific activity > 10) | CC(=O)OCC1(C)C2C[C@H](OC(=O)c3ccc(Br)cc3)[C@@]3(C)Oc4cc(-c5cccnc5)oc(=O)c4[C@H](O)C3[C@@]2(C)CC[C@@H]1OC(C)=O (some centres unmarked) [PRD 019, 7-p-bromobenzoyl-7-deacetylpyripyropene A] | 
100 to 1000 |  | + (5 > specific activity > 1) | CC(=O)OCC1(C)C2C[C@H](OC(=O)Cc3nnn[nH]3)[C@@]3(C)Oc4cc(-c5cccnc5)oc(=O)c4[C@H](O)C3[C@@]2(C)CC[C@@H]1OC(C)=O (some centres unmarked) [PRD 102, 7-O-(1H-tetrazol-5-yl)acetyl-7-deacetylpyripyropene A] | 
 |  | +++ (50 > specific activity > 10) | CC(=O)OCC1(C)C2C[C@H](OC(=O)c3cccc(C)c3)[C@@]3(C)Oc4cc(-c5cccnc5)oc(=O)c4[C@H](O)C3[C@@]2(C)CC[C@@H]1OC(C)=O (some centres unmarked) [PRD 008, 7-m-methylbenzoyl-7-deacetylpyripyropene A] | 
100 to 1000 |  | + (5 > specific activity > 1) | COCCOCOCC(=O)O[C@H]1CC2C(C)(COC(C)=O)[C@@H](OC(C)=O)CC[C@]2(C)C2[C@@H](O)c3c(cc(-c4cccnc4)oc3=O)O[C@@]21C (some centres unmarked) [PRD 108, 7-O-methoxyethoxymethoxyacetyl-7-deacetylpyripyropene A] | 
100 to 1000 |  | + (5 > specific activity > 1) | CC(=O)OCC1(C)C2C[C@H](OC(=O)c3ccc(O)cc3)[C@@]3(C)Oc4cc(-c5cccnc5)oc(=O)c4[C@H](O)C3[C@@]2(C)CC[C@@H]1OC(C)=O (some centres unmarked) [PRD 031, 7-p-hydroxybenzoyl-7-deacetylpyripyropene A] | 

Source: patent US8519128B2, “Pyripyropene derivatives having an ACAT2-inhibiting activity” (The Kitasato Institute, priority 2007, dated 2013)
